Experimental data from patent US10562898B2, “Substituted benzenesulfonamides as inhibitors of alpha-4 beta-7 integrin activity” (EA PHARMA CO., LTD., priority 2016, dated 2020).

System: mouse colitis model induced by transfer of IL-10−/− cells
Test: Mouse colitis model induced by transfer of IL-10−/− cells, intestinal tract weight
Format: in vivo
Details: oral, three times per day for 14 days
Procedure: As a method for preparing mouse colitis model induced by transfer of IL-10^−/− cells, used was the method described in J Crohns Colitis. 2013 December; 7 (11): e533-42.
Each test substance was suspended in a 0.5% methylcellulose aqueous solution to be contained at 30, 10, 3, or 1 mg/mL, and was orally administered with Terumo syringe (1 mL) and a metal probe for mouse in a dose of 10 ml per kilo gram of animal body weight. The administration was performed three times per day for 14 days.
An intestinal tract weight as a medicinal effect indicator was measured by the following method. On the final necropsy day, the large intestine from the anus to just before the cecum was taken out, the content in the intestinal tract was washed away with physiological saline, the moisture was lightly removed, and the weight of the large intestine was measured. The inhibitory rate (%) in each of compound administered groups was figured out based on the average value of intestinal tract weights per group under the setting in which a colitis onset group was scored at 0% and a normal group was scored at 100%.

Structure (SMILES) | Inhibitory Rate (%) (intestinal tract weight) (Dose 10 mg/kg) | Inhibitory Rate (%) (intestinal tract weight) (Dose 100 mg/kg) | Inhibitory Rate (%) (intestinal tract weight) (Dose 30 mg/kg) | Inhibitory Rate (%) (intestinal tract weight) (Dose 300 mg/kg)
Cc1c(C)n(C)c(=O)n(-c2ccc(C[C@H](NC(=O)c3cc(F)c(NS(=O)(=O)c4ccc(NC(=O)C(C)(C)C)cc4)cc3F)C(=O)OC(C)C)cc2)c1=O [Compound P2] | 24.6 | 52.2 |  | 
CCOC(=O)[C@H](Cc1ccc(-n2c(=O)cc(C)n(C)c2=O)nc1)NC(=O)c1cc(F)c(NS(=O)(=O)c2ccc(NC(=O)C(C)(C)C)cc2)cc1F [Compound P52] |  |  | 39.9 | 42.8
CC(C)OC(=O)[C@H](Cc1ccc(-n2c(=O)ccn(C)c2=O)nc1)NC(=O)c1cc(F)c(NS(=O)(=O)c2ccc(NC(=O)C(C)(C)C)cc2)cc1F [Compound P59] |  |  | 46.7 | 58.6
CCOC(=O)[C@H](Cc1ccc(-n2c(=O)c(C)cn(C)c2=O)nc1)NC(=O)c1cc(F)c(NS(=O)(=O)c2ccc(NC(=O)C(C)(C)C)cc2)cc1F [Compound P69] |  |  | 36.1 | 51.1
Cc1cn(C)c(=O)n(-c2ccc(C[C@H](NC(=O)c3cc(F)c(NS(=O)(=O)c4ccc(NC(=O)C(C)(C)C)cc4)cc3F)C(=O)OCC(C)C)cn2)c1=O [Compound P73] |  |  | 21.9 | 38.8
CC(C)COC(=O)[C@H](Cc1ccc(-n2c(=O)ccn(C)c2=O)nc1)NC(=O)c1cc(F)c(NS(=O)(=O)c2ccc(NC(=O)C(C)(C)C)cc2)cc1F [Compound P74] |  |  | 12.5 | 47.1
Cc1cc(=O)n(-c2ccc(C[C@H](NC(=O)c3cc(F)c(NS(=O)(=O)c4ccc(NC(=O)C(C)(C)C)cc4)cc3F)C(=O)OCC(C)C)cn2)c(=O)n1C [Compound P97] |  |  | 17.5 | 43.6
